Patent US8454986B2, “Silver nanoparticles with specific surface area and a method for producing them” (Janssen Pharmaceutica N.V., priority 2008, dated 2013)

How the values were obtained:
Format in all cases: cell-based
Candida albicans = test: Minimal inhibitory concentration, macrodilution method; details: yeast; 24 h, 30° C.
Excerpt: (§1) For the determination of the minimal inhibitory concentration (MIC) of nanosilver against different bacteria and fungi, i.e. the lowest concentration at which these micro-organisms show an inhibition of growth, the following protocol was used: • Journal of Antimicrobial Chemotherapy Supplement (JAC [2001] 48, Suppl. S1), March 2006, Chapter 2: Determination of minimal inhibitory concentrations; Macrodilution method.
(§2) Cultures of Staphylococcus aureus, Pseudomonas aeruginosa and Candida albicans were grown overnight and diluted to 150×10^6 bacterial cells or 5×10^6 yeast cells per mL (according to an optical density measured at 610 nm). These stock solutions were further diluted 500 times, […]. The final culture was then two times diluted in the final microtiter plate, resulting in a final dilution of 1:1000.
(§3) The test compound was diluted into the microtiter cultures at a concentration range from 0.5 to 470 mg/L Ag. The microtiter plates were then incubated at 30° C. on a shaker. After 24 h the plates were taken out of the incubation oven and growth was compared with the control row, both visually and by OD measurement at 610 nm.

Pseudomonas aeruginosa = test: as above; details: Gram negative; 24 h, 30° C.
Excerpt: as §1, §2, §3

Staphylococcus aureus = test: as above; details: Gram positive; 24 h, 30° C.
Excerpt: as §1, §2, §3

Aspergillus niger = test: Minimal inhibitory concentration, spore culture; details: mold

O=[N+]([O-])[O-].[Ag+] [silver nitrate]
Minimal Inhibitory Concentration (MIC) Candida albicans (Candida albicans): 12.5 mg Ag/L
Minimal Inhibitory Concentration (MIC) Pseudomonas aeruginosa (Pseudomonas aeruginosa): 6.3 mg Ag/L
Minimal Inhibitory Concentration (MIC) staphylococcus aureus (Staphylococcus aureus): 12.5 mg Ag/L
Minimal Inhibitory Concentration (MIC) Aspergillus niger (Aspergillus niger): 25 mg Ag/L
